Test results from patent US11291739B2, “System and methods for sterilizing enclosed spaces using ozone” (Gene Therapy Systems, Inc., priority 2015, dated 2022).
Like-named read-outs stand apart in the source and are kept apart here.

Experiments:
[1] = system: E. coli K-12 cells (strain DH5); test: Sterilization efficacy on LB agar plates loaded with E. coli in cell culture chamber; type: cell-based
Method: (§1) In tests #2 and #3, represented by lines 520 and 530, respectively, both the ozone generator and an ozone degrader were present in the cell culture chamber. The ozone degrader was formed of three activated carbon filters. With the ozone degrader present, the ozone generator was unable to achieve the peak ozone concentration seen in test #1. In tests #2 and #3, the ozone generator was run for 120 minutes and the concentration of ozone noticeably plateaued. The air within the cell culture chamber reached a peak ozone concentration of approximately 140-150 ppm ozone. After the ozone generator was turned off, the ozone began to break down at an accelerated rate with the activated carbon filters present. In both tests #2 and #3, the ozone levels reached a level of 0.01 ppm ozone within 15 minutes.
While the peak ozone concentrations reached in tests #2 and #3 were noticeably lower than the peak ozone concentration of test #1, the ozone levels in tests #2 and #3 were at least sufficient to achieve sterilization. In each of tests #2 and #3, sterilization efficacy was measured with the assistance of LB agar plates loaded with E. coli bacteria. As part of the experiment, E. coli K-12 cells (strain DH5) were grown overnight at 37° C. and the stationary phase was reached. […] The quantity of E. coli present was then analyzed and a photograph of each plate was taken.

bacteriophage T1 = test: Effect of ozone on bacteriophage T1 spotted on LB agar plates; type: cell-based; details: ozone 4 hours, peak less than 150 ppm, silver-coated mesh generator; 10^6-10^9 pfu/mL spots; DH5 E. coli overlay, 72 hours
Method: In Experiment 2, the effect of ozone on bacteriophage T1 was studied. In the experiment, 2.5 μL of purified bacteriophage T1 was spotted in four quadrants of two LB agar plates—a test plate 610 and a control plate 620, shown in FIG. 11. The bacteriophage concentrations on each of the two plates were (clockwise from the spot in the upper right quadrant): 10^9 pfu/mL, 10^8 pfu/mL, 10^7 pfu/mL, and 10^6 pfu/mL.
The test plate 610 was placed in an incubator chamber containing both an ozone generator and an ozone degrader. The ozone generator included two ceramic plates surrounded substantially by a silver-coated metal mesh. The ozone generator was activated and the test plate 610 was treated with ozone for 4 hours. The ozone generator was then turned off, and the ozone degrader, formed of activated carbon filters, accelerated the conversion of ozone to oxygen. The peak ozone concentration level generated within the incubator chamber was less than 150 ppm ozone.
The control plate 620 was placed in a different incubator chamber and left untreated. After the ozone generation and degradation cycle completed in the incubator chamber containing the test plate 610, 1 mL of stationary DH5 E. coli bacteria and top agar were added to each plate and incubated at room temperature for 72 hours. The photograph in FIG. 11 was taken immediately following this 72-hour period.

[2] = Ozone breakdown over time in enclosed cell culture chamber (calibrated ozone analyzer); type: physicochemical
Method: In Experiment 1, an 1800 mg/hour ozone generator was placed in a 5.5 cubic feet cell culture. The ozone level within the chamber was monitored using a calibrated ozone analyzer. Ozone measurements were captured every 10 seconds. The experimental results, as represented by ozone level over time, are provided in the line graph of FIG. 10A. In test #1, represented by line 510, the ozone generator was run for 80 minutes and achieved a peak ozone concentration within the cell culture chamber of approximately 325 ppm. After the ozone generator was turned off, the ozone was left to break down naturally within the enclosed cell culture chamber. It took approximately 28 hours for the ozone to breakdown to 0.01 ppm ozone.
as §1, with “After the ozone generator was turned off, the ozone began to break down at an accelerated rate with the activated carbon filters present. In both tests #2 and #3, the ozone levels reached a level of 0.01 ppm ozone within 15 minutes.” left out

[3] = cited from earlier work

O=[O+][O-] [ozone]
E. coli kill rate ([1]; test #2, ozone 120 minutes, peak approximately 140-150 ppm, then 15 minutes degradation, plates incubated at 37° C. overnight): 100%
quantity of E. coli present after treatment ([1]; test #2 test dish, control dish showed confluent growth): no E. coli was detected
survival of the T1-phage (bacteriophage T1): negligible survival
time for ozone to break down to 0.01 ppm ([2]; test #1, natural breakdown from approximately 325 ppm, no ozone degrader, 5.5 cubic feet chamber): approximately 28 hours
time for ozone levels to reach 0.01 ppm ([2]; tests #2 and #3, from approximately 140-150 ppm, three activated carbon filters present): ≤ 15 min
half-life ([3]; in the air): 36 to 72 h
half-life ([3]; in water): 0.13 to 0.5 h
